# Data: ChEMBL document CHEMBL4649987, “Benzoisoquinolinediones as Potent and Selective Inhibitors of BRPF2 and TAF1/TAF1L Bromodomains” (ACS Chem Biol, 2017)
# Where “and” joins values, the source holds several entries; their conditions need not be identical. Equal values may be shown once.
# Assays:
# [1] = molecular target: Protein polybromo-1 (Homo sapiens) (UniProt Q86U86); conditions: Compound concentration 10.0 uM, Protein concentration 2.0 uM
# [2] = molecular target: Nuclear body protein SP140-like protein (Homo sapiens) (UniProt Q9H930); conditions: Compound concentration 10.0 uM, Protein concentration 2.0 uM
# [3] = molecular target: Nuclear body protein SP140 (Homo sapiens) (UniProt Q13342); conditions: Compound concentration 10.0 uM, Protein concentration 2.0 uM
# [4] = molecular target: Bromodomain-containing protein 2 (Homo sapiens) (UniProt P25440); conditions: Compound concentration 10.0 uM, Protein concentration 2.0 uM
# [5] = molecular target: Tyrosine-protein kinase BAZ1B (Homo sapiens) (UniProt Q9UIG0); conditions: Compound concentration 10.0 uM, Protein concentration 2.0 uM
# [6] = molecular target: Bromodomain testis-specific protein (Homo sapiens) (UniProt Q58F21); conditions: Compound concentration 10.0 uM, Protein concentration 2.0 uM
# [7] = molecular target: Protein polybromo-1 (Homo sapiens) (UniProt Q86U86); conditions: Compound concentration 10.0 uM, Protein concentration 2.0 uM; remark: listed apart in the source
# [8] = molecular target: Bromodomain-containing protein 3 (Homo sapiens) (UniProt Q15059); conditions: Compound concentration 10.0 uM, Protein concentration 2.0 uM
# [9] = molecular target: PH-interacting protein (Homo sapiens) (UniProt Q8WWQ0); conditions: Compound concentration 10.0 uM, Protein concentration 2.0 uM
# [10] = molecular target: Histone acetyltransferase KAT2B (Homo sapiens) (UniProt Q92831); conditions: Compound concentration 10.0 uM, Protein concentration 2.0 uM
# [11] = molecular target: ATPase family AAA domain-containing protein 2B (Homo sapiens) (UniProt Q9ULI0); conditions: Compound concentration 10.0 uM, Protein concentration 2.0 uM
# [12] = molecular target: Transcription initiation factor TFIID subunit 1 (Homo sapiens) (UniProt P21675); conditions: Compound concentration 10.0 uM, Protein concentration 2.0 uM
# [13] = molecular target: Histone-lysine N-methyltransferase ASH1L (Homo sapiens) (UniProt Q9NR48); conditions: Compound concentration 10.0 uM, Protein concentration 2.0 uM
# [14] = molecular target: Bromodomain-containing protein 4 (Homo sapiens) (UniProt O60885); conditions: Compound concentration 10.0 uM, Protein concentration 2.0 uM
# [15] = molecular target: Bromodomain adjacent to zinc finger domain protein 1A (Homo sapiens) (UniProt Q9NRL2); conditions: Compound concentration 10.0 uM, Protein concentration 2.0 uM
# [16] = molecular target: Transcription intermediary factor 1-alpha (Homo sapiens) (UniProt O15164); conditions: Compound concentration 10.0 uM, Protein concentration 2.0 uM
# [17] = molecular target: Transcription initiation factor TFIID subunit 1-like (Homo sapiens) (UniProt Q8IZX4); conditions: Compound concentration 10.0 uM, Protein concentration 2.0 uM
# [18] = molecular target: Bromodomain-containing protein 4 (Homo sapiens) (UniProt O60885); conditions: Compound concentration 10.0 uM, Protein concentration 2.0 uM; remark: listed apart in the source
# [19] = molecular target: Bromodomain-containing protein 7 (Homo sapiens) (UniProt Q9NPI1); conditions: Compound concentration 10.0 uM, Protein concentration 2.0 uM
# [20] = molecular target: Histone acetyltransferase p300 (Homo sapiens) (UniProt Q09472); conditions: Compound concentration 10.0 uM, Protein concentration 2.0 uM
# [21] = molecular target: SWI/SNF-related matrix-associated actin-dependent regulator of chromatin subfamily A member 2 (Homo sapiens) (UniProt P51531); conditions: Compound concentration 10.0 uM, Protein concentration 2.0 uM
# [22] = molecular target: Bromodomain adjacent to zinc finger domain protein 2B (Homo sapiens) (UniProt Q9UIF8); conditions: Compound concentration 10.0 uM, Protein concentration 2.0 uM
# [23] = molecular target: Protein polybromo-1 (Homo sapiens) (UniProt Q86U86); conditions: Compound concentration 10.0 uM, Protein concentration 2.0 uM; remark: listed apart in the source
# [24] = molecular target: Nucleosome-remodeling factor subunit BPTF (Homo sapiens) (UniProt Q12830); conditions: Compound concentration 10.0 uM, Protein concentration 2.0 uM
# [25] = molecular target: Transcription initiation factor TFIID subunit 1 (Homo sapiens) (UniProt P21675); conditions: Compound concentration 10.0 uM, Protein concentration 2.0 uM; remark: listed apart in the source
# [26] = molecular target: Transcription intermediary factor 1-beta (Homo sapiens) (UniProt Q13263); conditions: Compound concentration 10.0 uM, Protein concentration 2.0 uM
# [27] = molecular target: Protein polybromo-1 (Homo sapiens) (UniProt Q86U86); conditions: Compound concentration 10.0 uM, Protein concentration 2.0 uM; remark: listed apart in the source
# [28] = molecular target: E3 ubiquitin-protein ligase TRIM33 (Homo sapiens) (UniProt Q9UPN9); conditions: Compound concentration […], Protein concentration 200.0 uM
# [29] = molecular target: Bromodomain and PHD finger-containing protein 3 (Homo sapiens) (UniProt Q9ULD4); conditions: Compound concentration 10.0 uM, Protein concentration 2.0 uM
# [30] = molecular target: SWI/SNF-related matrix-associated actin-dependent regulator of chromatin subfamily A member 4 (Homo sapiens) (UniProt P51532); conditions: Compound concentration 10.0 uM, Protein concentration 2.0 uM
# [31] = molecular target: Bromodomain-containing protein 3 (Homo sapiens) (UniProt Q15059); conditions: Compound concentration 10.0 uM, Protein concentration 2.0 uM; remark: listed apart in the source
# [32] = molecular target: Bromodomain and WD repeat-containing protein 3 (Homo sapiens) (UniProt Q6RI45); conditions: Compound concentration 10.0 uM, Protein concentration 2.0 uM
# [33] = molecular target: Bromodomain-containing protein 2 (Homo sapiens) (UniProt P25440); conditions: Compound concentration 10.0 uM, Protein concentration 2.0 uM; remark: listed apart in the source
# [34] = molecular target: Transcription initiation factor TFIID subunit 1-like (Homo sapiens) (UniProt Q8IZX4); conditions: Compound concentration 10.0 uM, Protein concentration 2.0 uM; remark: listed apart in the source
# [35] = molecular target: Protein polybromo-1 (Homo sapiens) (UniProt Q86U86); conditions: Compound concentration 10.0 uM, Protein concentration 2.0 uM; remark: listed apart in the source
# [36] = molecular target: Transcription intermediary factor 1-alpha (Homo sapiens) (UniProt O15164); conditions: Compound concentration 10.0 uM, Protein concentration 2.0 uM; remark: listed apart in the source
# [37] = molecular target: Bromodomain adjacent to zinc finger domain protein 2A (Homo sapiens) (UniProt Q9UIF9); conditions: Compound concentration 10.0 uM, Protein concentration 2.0 uM
# [38] = molecular target: Histone acetyltransferase KAT2A (Homo sapiens) (UniProt Q92830); conditions: Compound concentration 10.0 uM, Protein concentration 2.0 uM
# [39] = molecular target: Bromodomain testis-specific protein (Homo sapiens) (UniProt Q58F21); conditions: Compound concentration 10.0 uM, Protein concentration 2.0 uM; remark: listed apart in the source
# [40] = molecular target: Bromodomain-containing protein 9 (Homo sapiens) (UniProt Q9H8M2); conditions: Compound concentration 10.0 uM, Protein concentration 2.0 uM
# [41] = molecular target: Protein polybromo-1 (Homo sapiens) (UniProt Q86U86); conditions: Compound concentration 10.0 uM, Protein concentration 2.0 uM; remark: listed apart in the source
# [42] = molecular target: Histone-lysine N-methyltransferase 2A (Homo sapiens) (UniProt Q03164); conditions: Compound concentration 10.0 uM, Protein concentration 2.0 uM
# [43] = molecular target: ATPase family AAA domain-containing protein 2 (Homo sapiens) (UniProt Q6PL18); conditions: Compound concentration 10.0 uM, Protein concentration 2.0 uM
# Chain of Protein polybromo-1 (Homo sapiens) (Q86U86 whole entry): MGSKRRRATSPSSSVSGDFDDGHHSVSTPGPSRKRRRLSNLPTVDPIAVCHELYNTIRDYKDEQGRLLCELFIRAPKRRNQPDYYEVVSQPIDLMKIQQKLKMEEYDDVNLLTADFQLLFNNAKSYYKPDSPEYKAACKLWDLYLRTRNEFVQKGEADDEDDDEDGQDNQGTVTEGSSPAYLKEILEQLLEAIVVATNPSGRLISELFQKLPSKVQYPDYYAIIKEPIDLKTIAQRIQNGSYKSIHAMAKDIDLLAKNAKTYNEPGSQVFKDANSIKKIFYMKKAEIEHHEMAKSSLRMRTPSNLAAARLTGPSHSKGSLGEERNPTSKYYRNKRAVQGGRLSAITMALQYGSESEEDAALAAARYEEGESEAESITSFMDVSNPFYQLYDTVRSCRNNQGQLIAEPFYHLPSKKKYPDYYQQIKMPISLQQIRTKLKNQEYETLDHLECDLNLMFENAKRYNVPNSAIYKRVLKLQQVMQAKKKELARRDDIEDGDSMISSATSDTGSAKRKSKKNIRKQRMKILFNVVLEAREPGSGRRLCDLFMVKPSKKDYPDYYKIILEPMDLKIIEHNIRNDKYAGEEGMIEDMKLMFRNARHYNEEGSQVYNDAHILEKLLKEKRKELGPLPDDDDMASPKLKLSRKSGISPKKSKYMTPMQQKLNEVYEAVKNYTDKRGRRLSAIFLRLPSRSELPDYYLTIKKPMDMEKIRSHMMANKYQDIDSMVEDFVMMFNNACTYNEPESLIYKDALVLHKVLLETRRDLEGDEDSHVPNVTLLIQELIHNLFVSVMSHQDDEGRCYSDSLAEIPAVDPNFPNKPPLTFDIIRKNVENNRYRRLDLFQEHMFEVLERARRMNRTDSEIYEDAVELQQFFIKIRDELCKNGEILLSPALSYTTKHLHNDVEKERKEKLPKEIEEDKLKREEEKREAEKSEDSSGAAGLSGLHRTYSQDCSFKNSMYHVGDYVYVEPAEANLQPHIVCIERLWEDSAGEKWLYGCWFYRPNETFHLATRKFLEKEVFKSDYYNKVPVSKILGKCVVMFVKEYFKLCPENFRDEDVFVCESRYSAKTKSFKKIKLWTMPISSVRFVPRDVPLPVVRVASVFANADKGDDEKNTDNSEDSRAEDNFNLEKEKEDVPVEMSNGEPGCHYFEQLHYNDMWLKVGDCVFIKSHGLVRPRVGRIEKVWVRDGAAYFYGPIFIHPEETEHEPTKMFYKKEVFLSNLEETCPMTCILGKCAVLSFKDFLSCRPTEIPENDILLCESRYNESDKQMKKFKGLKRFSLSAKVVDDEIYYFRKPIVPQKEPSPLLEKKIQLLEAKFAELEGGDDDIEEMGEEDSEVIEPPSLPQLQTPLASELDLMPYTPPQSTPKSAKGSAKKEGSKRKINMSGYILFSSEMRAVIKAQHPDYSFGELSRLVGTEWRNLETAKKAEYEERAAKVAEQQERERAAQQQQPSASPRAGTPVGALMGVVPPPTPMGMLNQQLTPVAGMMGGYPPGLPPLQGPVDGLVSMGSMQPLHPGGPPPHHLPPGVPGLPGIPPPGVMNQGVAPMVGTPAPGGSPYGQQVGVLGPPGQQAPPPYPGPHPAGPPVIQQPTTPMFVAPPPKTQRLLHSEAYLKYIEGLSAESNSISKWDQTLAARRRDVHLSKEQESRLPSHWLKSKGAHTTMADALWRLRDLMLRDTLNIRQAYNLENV
# Chain of Transcription initiation factor TFIID subunit 1-like (Homo sapiens) (Q8IZX4 whole entry): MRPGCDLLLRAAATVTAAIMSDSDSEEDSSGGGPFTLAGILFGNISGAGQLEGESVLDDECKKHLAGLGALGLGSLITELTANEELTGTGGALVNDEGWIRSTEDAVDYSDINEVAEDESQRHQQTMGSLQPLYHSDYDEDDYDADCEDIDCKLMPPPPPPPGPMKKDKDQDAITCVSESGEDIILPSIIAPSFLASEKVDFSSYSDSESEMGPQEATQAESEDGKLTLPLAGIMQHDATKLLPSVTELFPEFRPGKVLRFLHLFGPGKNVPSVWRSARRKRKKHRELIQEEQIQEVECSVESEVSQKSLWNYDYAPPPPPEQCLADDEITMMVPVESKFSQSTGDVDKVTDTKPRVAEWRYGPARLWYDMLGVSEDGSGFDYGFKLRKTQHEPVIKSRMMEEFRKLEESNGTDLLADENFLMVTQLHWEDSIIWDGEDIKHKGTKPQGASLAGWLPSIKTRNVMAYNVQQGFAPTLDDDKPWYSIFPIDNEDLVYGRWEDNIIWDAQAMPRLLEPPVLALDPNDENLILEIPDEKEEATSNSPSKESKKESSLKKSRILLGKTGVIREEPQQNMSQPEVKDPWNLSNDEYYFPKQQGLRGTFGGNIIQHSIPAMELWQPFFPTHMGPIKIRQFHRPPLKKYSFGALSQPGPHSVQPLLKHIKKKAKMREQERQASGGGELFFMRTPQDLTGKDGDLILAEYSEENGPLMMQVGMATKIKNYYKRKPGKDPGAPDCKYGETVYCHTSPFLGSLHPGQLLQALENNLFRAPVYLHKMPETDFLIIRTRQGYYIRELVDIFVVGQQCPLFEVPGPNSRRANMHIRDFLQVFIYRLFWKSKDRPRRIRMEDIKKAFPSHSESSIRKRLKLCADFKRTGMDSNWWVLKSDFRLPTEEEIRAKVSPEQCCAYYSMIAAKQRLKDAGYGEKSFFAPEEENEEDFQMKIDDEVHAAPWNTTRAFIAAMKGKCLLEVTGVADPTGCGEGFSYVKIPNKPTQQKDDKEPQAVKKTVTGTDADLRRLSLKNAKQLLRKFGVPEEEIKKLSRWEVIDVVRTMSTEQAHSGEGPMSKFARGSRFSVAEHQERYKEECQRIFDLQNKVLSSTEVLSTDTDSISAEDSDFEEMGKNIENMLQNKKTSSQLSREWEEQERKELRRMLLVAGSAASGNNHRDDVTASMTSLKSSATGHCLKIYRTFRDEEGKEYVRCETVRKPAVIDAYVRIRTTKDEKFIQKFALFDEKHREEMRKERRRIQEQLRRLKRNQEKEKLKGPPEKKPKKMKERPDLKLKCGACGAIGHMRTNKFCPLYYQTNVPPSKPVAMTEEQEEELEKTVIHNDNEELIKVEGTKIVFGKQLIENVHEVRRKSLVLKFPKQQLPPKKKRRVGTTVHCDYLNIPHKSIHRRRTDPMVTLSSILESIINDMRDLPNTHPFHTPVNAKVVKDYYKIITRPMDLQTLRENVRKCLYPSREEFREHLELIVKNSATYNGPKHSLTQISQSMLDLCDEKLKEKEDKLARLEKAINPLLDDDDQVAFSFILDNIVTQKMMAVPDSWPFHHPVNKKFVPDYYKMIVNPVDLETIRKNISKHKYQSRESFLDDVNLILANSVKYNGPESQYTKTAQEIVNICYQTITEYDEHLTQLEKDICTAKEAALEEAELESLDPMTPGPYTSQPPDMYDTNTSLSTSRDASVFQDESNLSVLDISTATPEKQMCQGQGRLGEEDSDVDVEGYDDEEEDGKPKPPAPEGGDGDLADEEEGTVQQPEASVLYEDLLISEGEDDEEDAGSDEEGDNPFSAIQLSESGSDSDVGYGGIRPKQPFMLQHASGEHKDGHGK
# Chain of Bromodomain and PHD finger-containing protein 3 (Homo sapiens) (Q9ULD4 whole entry): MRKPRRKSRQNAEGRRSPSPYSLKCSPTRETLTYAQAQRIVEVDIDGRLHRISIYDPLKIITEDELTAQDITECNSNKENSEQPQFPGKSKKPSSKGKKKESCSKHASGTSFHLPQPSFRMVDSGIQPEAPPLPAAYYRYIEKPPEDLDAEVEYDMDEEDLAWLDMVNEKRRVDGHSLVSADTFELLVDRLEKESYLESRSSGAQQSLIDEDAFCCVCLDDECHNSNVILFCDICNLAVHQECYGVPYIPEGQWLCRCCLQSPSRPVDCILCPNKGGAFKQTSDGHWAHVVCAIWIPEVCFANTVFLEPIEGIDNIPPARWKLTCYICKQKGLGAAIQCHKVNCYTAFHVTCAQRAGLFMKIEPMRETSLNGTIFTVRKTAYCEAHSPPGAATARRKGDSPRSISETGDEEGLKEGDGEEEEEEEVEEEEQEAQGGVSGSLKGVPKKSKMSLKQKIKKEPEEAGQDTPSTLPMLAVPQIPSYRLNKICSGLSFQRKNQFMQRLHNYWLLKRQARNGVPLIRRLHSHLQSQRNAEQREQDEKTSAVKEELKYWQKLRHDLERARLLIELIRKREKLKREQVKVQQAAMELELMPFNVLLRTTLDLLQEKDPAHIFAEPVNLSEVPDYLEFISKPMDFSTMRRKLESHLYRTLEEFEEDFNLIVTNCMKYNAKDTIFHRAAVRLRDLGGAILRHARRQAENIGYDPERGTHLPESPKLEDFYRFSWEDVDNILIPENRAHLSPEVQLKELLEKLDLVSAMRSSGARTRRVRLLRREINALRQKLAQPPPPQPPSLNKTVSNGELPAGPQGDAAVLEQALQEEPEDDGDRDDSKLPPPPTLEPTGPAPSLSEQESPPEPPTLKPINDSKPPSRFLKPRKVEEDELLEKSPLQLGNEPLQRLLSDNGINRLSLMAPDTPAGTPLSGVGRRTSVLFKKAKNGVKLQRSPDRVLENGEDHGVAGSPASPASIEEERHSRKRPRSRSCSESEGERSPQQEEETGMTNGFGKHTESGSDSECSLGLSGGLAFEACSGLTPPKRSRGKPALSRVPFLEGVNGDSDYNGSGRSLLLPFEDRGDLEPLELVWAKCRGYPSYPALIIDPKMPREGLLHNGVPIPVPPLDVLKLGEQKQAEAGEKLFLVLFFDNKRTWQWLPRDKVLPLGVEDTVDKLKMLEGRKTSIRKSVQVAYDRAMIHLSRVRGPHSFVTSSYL
compound,measurement,setting,value
COc1ccccc1C(=O)Nc1cc2c(cc1N1CCCC1)n(C)c(=O)n2C,ΔTm,[1],0.26 °C
same,ΔTm,[2],-0.24 °C
same,ΔTm,[3],0.2 °C
same,ΔTm,[4],0.75 °C
same,ΔTm,[5],-0.03 °C
same,ΔTm,[6],0.27 °C
same,ΔTm,[7],0.73 °C
same,ΔTm,[8],0.33 °C
same,ΔTm,[9],0.71 °C
same,ΔTm,[10],2.09 °C
same,ΔTm,[11],-0.04 °C
same,ΔTm,[12],0.33 °C
same,ΔTm,[13],0.36 °C
same,ΔTm,[14],1.37 °C
same,ΔTm,[15],0.5 °C
same,ΔTm,[16],0.72 °C
same,ΔTm,[17],0.31 °C
same,ΔTm,[18],0.33 °C
same,ΔTm,[19],3.84 °C
same,ΔTm,[20],0.9 °C
same,ΔTm,[21],0.18 °C
same,ΔTm,[22],0.88 °C
same,ΔTm,[23],-0.35 °C
same,ΔTm,[24],0.31 °C
same,ΔTm,[25],0.9 °C
same,ΔTm,[26],-0.53 °C
same,ΔTm,[27],0.54 °C
same,inhibition,[28],35.5%
same,ΔTm,[29],2.36 °C and 1.34 °C
same,ΔTm,[30],0.2 °C
same,ΔTm,[31],0.74 °C
same,ΔTm,[32],-0.2 °C
same,ΔTm,[33],0.74 °C
same,ΔTm,[34],0.79 °C
same,ΔTm,[35],0.03 °C
same,ΔTm,[36],1.35 °C
same,ΔTm,[37],0.5 °C
same,ΔTm,[38],0.21 °C
same,ΔTm,[39],0.18 °C
same,ΔTm,[40],1.21 °C
same,ΔTm,[41],-0.44 °C
same,ΔTm,[42],0.13 °C
same,ΔTm,[43],-0.03 °C
